# Legend:
# Her2 in SKBr3 cells = assay: Her2 assay (microtiter immunoassay of Her2 degradation); type: cell-based, human; conditions: for IC50: Her2 degradation, SKBr3 cells, 24 h, average of 3 measurements; for Her2 degradation in SKBr3 cells: result in words
# Protocol: Her2 Assay. SKBr3 cells were plated in black, clear-bottom microtiter plates (Corning#3603) at 3,000 cells/well in growth medium (100 μl) and allowed to attach for 24 h at 37° C. and 5% CO2. Growth medium (100 μl) with drug or vehicle (DMSO) was carefully added to the wells, and the plates were placed at 37° C. and 5% CO2. Following 24 h incubation with drugs, wells were washed with ice-cold Tris buffer saline (TBS) containing 0.1% Tween 20 (TBST) (200 μl). A house vacuum source attached to an eight-channel aspirator was used to remove the liquid from the plates. Further, methanol (100 μl at −20° C.) was added to each well, and the plate was placed at 4° C. for 10 min. Methanol was removed by washing with TBST (2×200 μl). After further incubation at RT for 2 h with SUPERBLOCK® R (Pierce 37535) (200 μl), anti-Her-2 (c-erbB-2) antibody (Zymed Laboratories#28-004) (100 μl, 1:200 in SUPERBLOCK® R) was placed in each well. The plate was incubated overnight at 4° C. For control wells, 1:200 dilution of a normal rabbit IgG (Santa Cruz#SC-2027) in SUPERBLOCK® R was used. Each well was washed with TBST (2×200 μl) and incubated at RT for 2 h with an anti-rabbit HRP-linked antibody (Sigma, A-0545) (100 μl, 1:2000 in SuperBlockR). Unreacted antibody was removed by washing with TBST (3×200 μl), and the ECL™ Western blotting reagent (Amersham #RPN2106) (100 μL) was added. The plate was immediately read in an Analyst AD plate reader (Molecular Devices). Each well was scanned for 0.1 s. Readings from wells containing only control IgG and the corresponding HRP-linked secondary antibody were set as background and deducted from all measured values.
# [1] = tested on: SKBr3 breast cancer cells; assay: Growth inhibition, sulforhodamine B assay; type: cell-based, human; conditions: for IC50: growth inhibition, 72 h, average of 3 measurements; for Inhibition of growth in SKBr3 cells: result in words
# Protocol: (§1) Cell Culture. The human breast cancer cell lines SKBr3 and MDA-MB-468 were a gift from Dr. Neal Rosen (MSKCC). Cells were maintained in 1:1 mixture of DME:F12 supplemented with 2 mM glutamine, 50 units/mL penicillin, 50 […] and 10% heat inactivated fetal bovine serum (Gemini Bioproducts#100-10b) and incubated at 37° C., 5% CO2. Growth assays. Growth inhibition studies were performed using the sulforhodamine B assay as previously described.^29 In summary, experimental cultures were plated in microtiter plates (Nunc#167008). One column of wells was left without cells to serve as the blank control. Cells were allowed to attach overnight. The following day, growth medium having either drug or DMSO at twice the desired initial concentration was added to the plate in triplicate and was serially diluted at a 1:1 ratio in the microtiter plate. After 72 h of growth, the cell number in treated versus control wells was estimated after treatment with 50% trichloroacetic acid and staining with 0.4% sulforhodamine B in 1% acetic acid. […] Normal human renal proximal tubular epithelial (RPTEC) cells were purchased pre-seeded in 96-well plates (Clonetics, CC-3190). Upon receipt, cells were placed in a humidified incubator at 37° C., 5% CO2 and allowed to equilibrate for 3 h. Media was removed by suction and replaced with fresh media provided by the manufacturer. Cells were then treated with either drugs or DMSO for 72 h and the IC50 values were determined as described above.
# MDA-MB-468 cells = assay: Anti-mitotic assay (Tg-3 microtiter immunoassay); type: cell-based, human; conditions: MDA-MB-468 (Rb-defective) cells, 24 h
# Protocol: Anti-Mitotic Assay. Black, clear-bottom microtiter 96-well plates (Corning Costar#3603) were used to accommodate experimental cultures. MDA-MB-468 cells were seeded in each well at 8,000 cells per well in growth medium (100 μL), and allowed to attach overnight at 37° C. and 5% CO2. Growth medium (100 μL) with drug or vehicle (DMSO) was gently added to the wells, and the plates were incubated at 37° C. and 5% CO2 for 24 h. Wells were washed with ice-cold TBST (2×200 μL). A house vacuum source attached to an eight-channel aspirator was used to remove the liquid from the 96-well plates. Ice-cold methanol (100 μL) was added to each well, and the plate was placed at 4° C. for 5 min. Methanol was removed by suction and plates were washed with ice-cold TBST (2×200 μL). Plates were further incubated with SuperBlock® blocking buffer (Pierce #37535) (200 μL) for 2 h at RT. The Tg-3 antibody (gift of Dr. Davies, Albert Einstein College of Medicine) diluted 1:200 in SuperBlock® was placed in each well (100 μL) except the control column that was treated with control antibody (Mouse IgM, NeoMarkers, NC-1030-P). After 72 h, wells were washed with ice-cold TBST (2×200 μL). […] Un-reacted antibody was removed by washing the plates with ice-cold TBST (3×200 μL) for 5 min on a shaker. The ECL™ Western Blotting Detection Reagents 1 and 2 in 1:1 mix (100 μL) was placed in each well and the plates were read immediately in an Analyst AD plate reader (Molecular Devices). Luminescence readings were imported into SOFTmax PROR 4.3.1. Anti-mitotic activity was defined as a concentration dependent increase in luminescence readings in compound-treated wells as compared to DMSO only treated wells.
# [2] = tested on: Hsp90 complexes found in normal lung tissue; assay: Hsp90 competition assay, lung homogenate; type: binding, mouse; conditions: ratio of EC50 values
# Protocol: (§4) When using cell lysates instead of recombinant protein, the assay measures binding to average. Hsp90 population found in cell specific complexes.
# (§5) Hsp90 Competition Assay.Fluorescence polarization measurements were performed on an ANALYST® AD instrument (Molecular Devices, Sunnyvale, Calif.). […] The assay buffer (HFB) contained 20 mM HEPES (K) pH 7.3, 50 mM KCl, 5 mM MgCl2, 20 mM Na2MoO4, 0.01% NP40. Before each use, 0.1 mg/mL bovine gamma globulin (BGG) (Panvera Corporation, Madison, Wis.) and 2 mM DTT (Fisher Biotech, Fair Lawn, N.J.) were freshly added. […] Cell lysates were prepared rupturing cellular membranes by freezing at −70° C. and dissolving the cellular extract in HFB with added protease and phosphotase inhibitors. Organs were harvested from a healthy mouse and homogenized in HFB. Saturation curves were recorded in which GM-BODIPY (5 nM) was treated with increasing amounts of cellular lysates.
# [3] = tested on: Hsp90 complexes found in normal heart tissue; assay: Hsp90 competition assay, heart homogenate; type: binding, mouse; conditions: ratio of EC50 values
# Protocol: as §4, §5
# [4] = tested on: Hsp90 complexes found in normal brain tissue; assay: Hsp90 competition assay, brain homogenate; type: binding, mouse; conditions: ratio of EC50 values
# Protocol: as §4, §5
# Hsp90 from SKBr3 cells = assay: Hsp90 competition assay, SKBr3 cell lysate; type: binding, human
# Protocol: as §4, §5
# [5] = tested on: renal proximal tubular epithelial cells (RPTEC); assay: Cytotoxicity against normal RPTEC cells; type: cell-based, human; conditions: ratio of growth IC50 values
# Protocol: as §1, with “Cells were then treated with either drugs or DMSO for 72 h and the IC50 values were determined as described above.” left out
# [6] = tested on: small cell lung cancer cell lines; assay: Apoptosis and cell death in SCLC cell lines; type: cell-based; conditions: each of the SCLC cell lines
# [7] = Tumor and plasma concentration in MDA-MB-468 xenografted mice; type: in vivo; conditions: 24 hours after intraperitoneal injection
# Protocol: (§2) Mice xenografted with MDA-MB-468 human breast cancer tumors were treated by intraperitoneal injection with Compound 5 at a dosage levels of 25, 50, 75, 100 and 150 mg/kg. The concentration of Compound 5 in the tumor 24 hours after administration was determined. […] Compound 5 was further tested for its effects on the pharmacodynamic marker Raf-1 kinase.
# Raf-1 kinase = assay: Pharmacodynamic marker in MDA-MB-468 xenograft tumors; type: in vivo, mice
# Protocol: as §2
# Hsp90 stabilizes this kinase and maintains it in ready-to-be-activated conformation. Inhibition of Hsp90 leads to disruption of the complex and further ubiquitinylation and degradation of Raf-1 by the proteasome. Thus, Raf-1 degradation in tumors is a functional read-out of Hsp90 inhibition.
# cancer cells = assay: Potency against cancer cells; type: cell-based
# Protocol: (§3) Growth over 96 h was assessed.
# H69AR = assay: Growth over 96 h, resistant SCLC line; type: cell-based; conditions: SCLC cell line resistant to adriamycin
# Protocol: as §3
# SKI-Chen = assay: Growth over 96 h, resistant SCLC line; type: cell-based, human; conditions: line from a patient who failed every conventional therapy
# Protocol: as §3
# [8] = tested on: SCLC cells highly resistant to conventional chemotherapy; assay: Growth inhibition and cell death, FIG. 8; type: cell-based; conditions: FIG. 8, growth over 96 h
# Protocol: as §3
# small cell lung tumors = assay: Pharmacodynamics and anti-cancer activity in a model of small cell lung cancer; type: in vivo
# [9] = Blood brain barrier penetration
# [10] = tested on: MRC5 normal lung fibroblasts; assay: Selectivity SKBr3 versus MRC5 normal cells; type: cell-based
compound,measurement,setting,value
"9-(Pent-4-ynyl)-8-(2,4,5-trichloro-phenylsulfanyl)adenine [Example 2]",IC50,Her2 in SKBr3 cells,58000 ± 1400 nM
same,IC50,Her2 in SKBr3 cells; listed as Comp 2,1300 ± 400 nM
same,Her2 degradation in SKBr3 cells,Her2 in SKBr3 cells,induced Her2 degradation
same,IC50,[1],48400 ± 2500 nM
same,IC50,[1]; listed as Comp 2,1800 ± 200 nM
same,Inhibition of growth in SKBr3 cells,[1],inhibition of growth
same,Anti-mitotic,MDA-MB-468 cells,No
same,Anti-mitotic,MDA-MB-468 cells; listed as Comp 2,exhibited anti-mitotic activity and Yes
same,Lung/SKBr3,[2],2400
same,Heart/SKBr3,[3],590
"C#CCCCn1c(Sc2cc3c(cc2Br)OCO3)nc2c(N)ncnc21 [Example 1, 9-(Pent-4-ynyl)-8-(6-bromo-benzo[1,3]dioxol-5-ylsulfanyl)adenine]",Her2 degradation in SKBr3 cells,Her2 in SKBr3 cells,induced Her2 degradation
same,Inhibition of growth in SKBr3 cells,[1],inhibition of growth
same,Anti-mitotic,MDA-MB-468 cells,exhibited anti-mitotic activity and Yes
same,Brain/SKBr3,[4],2000
same,"Selectivity for tumor cells as opposed to normal heart, brain or lung tissue",Hsp90 from SKBr3 cells,very high selectivity
same,RPTEC/SKBr3,[5],20.5
same,Induction of apoptosis in SCLC cell lines,[6],induced apoptosis
"COc1cc(Sc2nc3c(N)ncnc3n2CCOC(C)C)c(Cl)cc1Cl [Example 3, 9-(2-Isopropoxy-ethyl)-8-(2,4-dichloro-5-methoxy-benzenesulfanyl)adenine]",Anti-mitotic,MDA-MB-468 cells,No
"Nc1ncnc2nc(Sc3cc(Cl)c(Cl)cc3Cl)[nH]c12 [Example 4, 8-(2,4,5-Trichloro-phenylsulfanyl)adenine]",Anti-mitotic,MDA-MB-468 cells,Yes
"CC(C)NCCCn1c(Sc2cc3c(cc2Br)OCO3)nc2c(N)ncnc21 [Example 5, 8-(6-Bromo-benzo[1,3]dioxol-5-ylsulfanyl)-9-(3-isopropylamino-propyl)adenine]",Anti-mitotic,MDA-MB-468 cells,Yes
same,Concentration in plasma,[7],could not be detected
same,Raf-1 protein levels in tumor,Raf-1 kinase; all dosage levels,substantial decrease in Raf-1 levels
same,Expression of PD kinase,Raf-1 kinase; protein unaffected by Hsp90 inhibitors,no change in expression
"C#CCCCn1c(Cc2cc3c(cc2Br)OCO3)nc2c(N)nc(F)nc21 [Example 6, 2-Fluoro-8-(6-bromo-benzo[1,3]dioxol-5-ylmethyl)-9-(pent-4-ynyl)adenine]",Anti-mitotic,MDA-MB-468 cells,Yes
"C#CCCCn1c(Cc2cc3c(cc2Cl)OCO3)nc2c(N)nc(F)nc21 [Example 7, 2-Fluoro-8-(6-chloro-benzo[1,3]dioxol-5-ylmethyl)-9-(pent-4-ynyl)adenine]",Anti-mitotic,MDA-MB-468 cells,Yes
"CC(C)NCCCn1c(Cc2cc3c(cc2I)OCO3)nc2c(N)nc(F)nc21 [Example 8, 2-Fluoro-8-(6-iodo-benzo[1,3]dioxol-5-ylmethyl)-9-(3-isopropylamino-propyl) adenine]",Anti-mitotic,MDA-MB-468 cells,Yes
same,Potency against cancer cells,cancer cells,low nanomolar potency
"CC(C)NCCCn1c(Sc2cc3c(cc2I)OCO3)nc2c(N)ncnc21 [Example 9, 8-(6-Iodo-benzo[1,3]dioxol-5-ylsulfanyl)-9-(3-isopropylamino-propyl)adenine]",IC50,"Her2 in SKBr3 cells; Homo sapiens, SK-BR-3",100 ± 10 nM
same,IC50,"[1]; Homo sapiens, SK-BR-3",90 ± 2 nM
same,Anti-mitotic,MDA-MB-468 cells,Yes
same,Lung/SKBr3,[2],48
same,Heart/SKBr3,[3],140
same,Potency against cancer cells,cancer cells,low nanomolar potency
same,Activity in H69AR,H69AR,retains its activity
same,Activity in SKI-Chen,SKI-Chen,retains its activity
same,Effective concentration lower than PU24FC1,[8],about 20 times
same,Tumor growth inhibition,small cell lung tumors; comparable to 17AAG,efficiently inhibited the growth of this tumor
same,Apoptosis of the tumor (PARP cleavage),small cell lung tumors; in vivo,induces significant apoptosis of the tumor
same,Duration of downregulation of Hsp90 client proteins in tumor,small cell lung tumors; in vivo,more than 36 h
same,Toxicity to the host,small cell lung tumors; in vivo,without toxicity to the host
same,Raf-1 and Akt in tumor,small cell lung tumors; one administered dose,efficiently degraded or inactivated
same,Blood brain barrier penetration,[9],ability to cross the blood brain barrier
"C#CCCCn1c(Sc2cc3c(cc2I)OCO3)nc2c(N)ncnc21 [Example 10, 8-(6-Iodo-benzo[1,3]dioxol-5-ylsulfanyl)-9-(pent-4-ynyl)adenine]",Heart/SKBr3,[3],370
same,Selectivity between SKBr3 cells and MRC5 normal lung fibroblasts,[10],Selectivity was also observed
"C#CCCCn1c(Cc2cc3c(cc2I)OCO3)nc2c(N)nc(F)nc21 [Example 11, 2-Fluoro-8-(6-iodo-benzo[1,3]dioxol-5-ylmethyl)-9-(pent-4-ynyl)adenine]",Anti-mitotic,MDA-MB-468 cells,Yes
"C#CCCCn1c(Cc2cc(OC)c(OC)cc2I)nc2c(N)nc(F)nc21 [Example 12, 2-Fluoro-8-(2-iodo-4,5-dimethoxy-benzyl)-9-(pent-4-ynyl)adenine]",Anti-mitotic,MDA-MB-468 cells,No
"C#CCCCn1c(Cc2cc(OC)c(OC)cc2Br)nc2c(N)nc(F)nc21 [Example 13, 2-Fluoro-8-(2-bromo-4,5-dimethoxy-benzyl)-9-(pent-4-ynyl)adenine]",Anti-mitotic,MDA-MB-468 cells,No
"C#CCCCn1c(Cc2cc(OC)c(OC)cc2Cl)nc2c(N)nc(F)nc21 [Example 14, 2-Fluoro-8-(2-chloro-4,5-dimethoxy-benzyl)-9-(pent-4-ynyl)adenine]",Anti-mitotic,MDA-MB-468 cells,No
